Assay [1] has as its target T1, Neurotensin receptor type 1 (Homo sapiens, UniProt P30989). In words: Allosteric modulation of human GFP-fused PK-tagged Gq-coupled NTR1 expressed in CHOK1 cells assessed as induction of NT (8 to 13) peptide-mediated beta-arrestin recruitment measured after 90 mins by pathhunter assay relative to NT (8 to 13) peptide. The assay is classed as cell-based. On the technique in general: Arrestin recruitment assays detect the binding of arrestin to an activated receptor.

For assay [2], the target named is Neurotensin receptor type 2 (Homo sapiens) (UniProt O95665). In words: Allosteric modulation of NTR2 (unknown origin) assessed as induction of NT (8 to 13) peptide-mediated beta-arrestin recruitment at >80 uM by pathhunter assay.
Neurotensin receptor type 2 (Homo sapiens), sequence (O95665 whole entry, the tested form may be a part): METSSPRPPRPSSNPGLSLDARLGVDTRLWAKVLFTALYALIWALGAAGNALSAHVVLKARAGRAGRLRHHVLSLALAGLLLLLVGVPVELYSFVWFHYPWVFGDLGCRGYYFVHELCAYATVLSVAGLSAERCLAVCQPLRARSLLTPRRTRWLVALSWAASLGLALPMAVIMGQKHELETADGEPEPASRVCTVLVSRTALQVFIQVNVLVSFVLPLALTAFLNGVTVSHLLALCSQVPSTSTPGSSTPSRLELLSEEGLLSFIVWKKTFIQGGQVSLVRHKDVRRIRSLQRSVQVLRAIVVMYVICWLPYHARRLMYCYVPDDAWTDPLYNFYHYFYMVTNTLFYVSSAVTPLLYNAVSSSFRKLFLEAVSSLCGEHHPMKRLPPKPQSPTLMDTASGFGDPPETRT
The target of assay [3] is T1, Neurotensin receptor type 1. The assay can be described thus: Allosteric modulation of human GFP-fused PK-tagged Gq-coupled NTR1 expressed in CHOK1 cells assessed as induction of NT (8 to 13) peptide-mediated beta-arrestin recruitment measured after 90 mins by pathhunter assay. It is filed as cell-based.

We go through 21 molecules from ChEMBL document CHEMBL4373709 (J Med Chem, 2019).

Active and inactive are the calls of the source. No cut-off for these calls is given here.

T1 sequence (P30989 whole entry, the tested form may be a part): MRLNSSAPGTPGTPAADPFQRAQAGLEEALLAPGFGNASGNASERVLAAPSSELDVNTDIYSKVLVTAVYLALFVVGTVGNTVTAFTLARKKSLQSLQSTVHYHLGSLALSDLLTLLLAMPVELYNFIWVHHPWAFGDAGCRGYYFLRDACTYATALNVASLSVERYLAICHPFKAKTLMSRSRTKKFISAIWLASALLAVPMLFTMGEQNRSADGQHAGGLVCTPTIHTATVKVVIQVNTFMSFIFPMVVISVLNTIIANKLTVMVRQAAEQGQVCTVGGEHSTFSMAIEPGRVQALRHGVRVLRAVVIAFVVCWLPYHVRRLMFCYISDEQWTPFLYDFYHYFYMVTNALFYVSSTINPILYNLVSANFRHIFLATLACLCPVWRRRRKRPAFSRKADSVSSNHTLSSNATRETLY

As to `COCCN(C)c1ccc2nc(C3(C)CC3)nc(N3CCC(c4ccccc4OC)CC3)c2c1`, in assay [1], the Emax (commonly the maximal effect, on the per cent scale that the assay sets) worked out at 60%. For the same molecule, in assay [2], the result was inactive. Further, the EC50 (usually the concentration at which the effect is half-maximal) in assay [3] is 2230 nM.

In the case of `COc1ccccc1C1CCN(c2nc(C3(F)CC3)nc3ccc(N(C)C)cc23)CC1`, the Emax in assay [1] was found to be 84%. In addition, the result in assay [2] was inactive. In addition, the concentration for a half-maximal effect (EC50) in assay [3] was determined as 920 nM.

As for `COc1ccccc1C1CCN(c2nc(C3CC3)nc3ccc(N(C)CCO)c(Cl)c23)CC1`, the Emax in assay [1] was 91%. For the same molecule, the outcome in assay [2] was inactive. Also, in assay [3], the EC50 worked out at 500 nM.

With `COc1cc2nc(C3CC3)nc(C3CCN(c4ccccc4OC)CC3)c2cc1OC`, the outcome in assay [2] was inactive. For the same molecule, the EC50 in assay [3] was over 20000 nM.

Take `CCN(C)c1cccc2nc(C3CC3)nc(N3CCC(c4ccccc4OC)CC3)c12`: in assay [1], the Emax was found to be 60%. Moreover, the outcome in assay [2] was inactive. Further, the EC50 in assay [3] is 6710 nM.

With `COc1ccccc1C1CCN(c2nc(C3CC3)nc3ccc(N4CC[C@@H](O)C4)cc23)CC1`, the Emax in assay [1] was found to be 79%. The result in assay [2] was inactive. In addition, in assay [3], the EC50 is 440 nM.

Consider `COc1ccccc1C1CCN(c2nc(C3CC3)nc3ccc(N4CC[C@@H](OC)C4)cc23)CC1`, for which, in assay [1], the Emax worked out at 93%. The result in assay [2] was inactive. For the same molecule, the EC50 in assay [3] worked out at 640 nM.

As for `COc1ccccc1C1CCN(c2nc(C3(F)CCC3)nc3ccc(N(C)CCO)cc23)CC1`, the Emax in assay [1] was determined as 96%. Also, in assay [2], the result was inactive. In assay [3], the EC50 worked out at 270 nM.

Take `CCCN(C)c1ccc2nc(C3(F)CC3)nc(N3CCC(c4ccccc4OC)CC3)c2c1`: the Emax in assay [1] came to 80%. Also, the result in assay [2] was inactive. The EC50 in assay [3] came to 1450 nM.

Consider `COc1ccccc1C1CCN(c2nc(C3CC3)nc3ccc(N4CCC(OC)CC4)cc23)CC1`, for which the Emax in assay [1] was 79%. Further, the outcome in assay [2] was inactive. Moreover, the EC50 in assay [3] is 2780 nM.

Take `COc1ccccc1C1CCN(c2nc(C3CCCC3)nc3ccc(N(C)CCO)cc23)CC1`: the Emax in assay [1] amounted to 78%. Besides, in assay [2], the result was inactive. The EC50 in assay [3] amounted to 3880 nM.

With `COc1ccccc1C1CCN(c2nc(C3CC3)nc3ccc(N(C)CCO)cc23)CC1`, the Emax in assay [1] is 92%. Moreover, in assay [2], the outcome was inactive. For the same molecule, the EC50 in assay [3] stood at 478 nM.

As to `CCCN(C)c1ccc2c(N3CCC(c4ccccc4OC)CC3)nc(C3CC3)nc2c1`, the Emax in assay [1] was found to be 86%. Also, the result in assay [2] was inactive. For the same molecule, the EC50 in assay [3] was 10000 nM.

Turning to `COc1ccccc1C1CCN(c2nc(C3(C)CC3)nc3ccc(N(C)CCN4CCOCC4)cc23)CC1`, the Emax in assay [1] turned out to be 71%. For the same molecule, the outcome in assay [2] was inactive. Besides, in assay [3], the EC50 turned out to be 3360 nM.

For the molecule `CCCN(C)c1cc2c(N3CCC(c4ccccc4OC)CC3)nc(C3CC3)nc2cc1F`, in assay [1], the Emax was determined as 68%. For the same molecule, in assay [2], the result was inactive. In addition, the EC50 in assay [3] stood at 3010 nM.

On to `COc1ccccc1C1CCN(c2nc(C3CC3)nc3c(F)cc(N(C)CCO)cc23)CC1`, for which the Emax in assay [1] was 100%. The outcome in assay [2] was inactive. Further, in assay [3], the EC50 was 160 nM.

Turning to `COCCN(C)c1ccc2nc(C3(F)CC3)nc(N3CCC(c4ccccc4OC)CC3)c2c1`, the Emax in assay [1] worked out at 86%. Besides, the outcome in assay [2] was inactive. For the same molecule, the EC50 in assay [3] was found to be 1060 nM.

For `COc1ccccc1C1CCN(c2nc(C3(C)CC3)nc3ccc(N(C)CCO)cc23)CC1`, the Emax in assay [1] is 90%. For the same molecule, in assay [2], the result was inactive.

On to `COc1cc2nc(C3CC3)nc(N3CCC(c4ccccc4OC)CC3)c2cc1OC`, for which the Emax in assay [1] was determined as 89%. Also, the result in assay [2] was inactive. Further, in assay [3], the concentration for a half-maximal effect (EC50) amounted to 1040 nM.

As for `COc1ccccc1C1CCN(c2nc(C3CC3)nc3ccc(N(C)CCO)c(C)c23)CC1`, the maximal response (Emax) in assay [1] is 93%. In assay [2], the result was inactive. Besides, the EC50 in assay [3] was 1260 nM.

Consider `COc1ccccc1N1CCN(c2nc(C3CC3)nc3ccc(N(C)C)cc23)CC1`, for which the EC50 in assay [3] is 710 nM.
